Experimental data taken from patent publication US20040086536A1, “Therapeutic agents and treatment kits for hypertrophic pyloric stenosis” (priority 2002, published 2004).
Structures can show the parent of a compound that is named as a salt.

Tests used:
[1] = tested on: hypertrophic pyloric stenosis; conditions: cited from earlier work
[2] = tested on: hypertrophic pyloric stenosis; assay: Treatment of infantile patients with hypertrophic pyloric stenosis (disappearance of vomiting, hospitalization); conditions: atropine sulfate 0.1 mg/kg/day iv.
Description: In the present treating examples, a solution for intravenous injection of atropine sulfate was used as the anticholinergic agent and a nitroglycerin patch was used as the NO donor.
After confirming that the pH and electrolytes in the blood restore in the normal ranges in individual infantile patients, a daily dosage of atropine sulfate (0.1 mg/kg/day) was divided by the number of milk feeding and the divided dosage of atropine sulfate was administered intravenously 10 minutes before each milk feeding over 3 minutes or longer. Except in the cases where abnormally strong side effects were produced, the dosage amounts for subsequent intravenous injections were not changed principally. […] The minimum dosage amount is 0.04 mg/kg/day.
In parallel with the atropine sulfate intravenous injection, a nitroglycerin transdermal patch (Millisrol Tape (registered trademark)): 5 mg/patch: Nippon Kayaku Co., Ltd.; or Minitro Tape (registered trademark): 5 mg/patch: Nisshin-Kyorin Pharmaceutical Co., Ltd.) was used. […]
To prevent the occurrence of aspiration pneumonia induced by vomiting and the induction of contraction of gastric smooth muscles and pyloric sphincters, isotonic drinking solution was fed orally as the infantile patient wanted until the vomiting subsided. […] The body weight and the daily amount of milk intake were measured every day. […]

SMILES: CN1[C@@H]2CC[C@H]1C[C@@H](OC(=O)C(CO)c1ccccc1)C2 (some centres unmarked) [atropine sulfate (iv.), atropine sulfate]
- time for which the spasm disappears after the administration ([1]; atropine sulfate therapy, contraction of the pyloric muscle often reappears afterward): 20 to 30 min
- effectiveness of treatment ([1]; intravenous injection, needs long term hospitalization): high
- effectiveness rate of treatment ([1]; oral administration): less than 50%
- Duration of vomiting (onset of action) after the initiation of the treatment [2]: 5 ± 2 days
- duration of hospitalization [2]: 9 ± 2 days
